This note sets out measurements from patent US9034897B2, “Indanyl-substituted 4,5,6,7-tetrahydro-1H-pyrazolo[4,3-C]pyridines, their use as medicament, and pharmaceutical preparations comprising them” (SANOFI, priority 2011, dated 2015).

For one assay, the target named is Human TASK-1 channels (Homo sapiens (Human), UniProt O14649). The assay is described as follows: Activity on the TASK-1 channel in Xenopus oocytes (two-microelectrode voltage clamp). Format: cell-based. As to conditions: for IC50: human TASK-1 expressed in Xenopus oocytes, currents during 500 ms pulses to 40 mV, room temperature; for inhibition at 5 µM: percentage inhibition of TASK-1 control current, Xenopus oocytes. The protocol: Determination of the activity on the TASK-1 channel in Xenopus oocytes:
Human TASK-1 channels were expressed in Xenopus oocytes. For this purpose, oocytes were isolated from Xenopus laevis and defolliculated. Subsequently, TASK-1-encoding RNA synthesized in vitro was injected into oocytes. After two days of TASK-1 protein expression, TASK-1 currents were measured by two-microelectrode voltage clamp. Data were acquired and analyzed using a TEC-10cx amplifier (NPI Electronic, Tamm, Germany) connected to an ITC-16 interface (Instrutech Corp., Long Island, USA) and Pulse software (HEKA Elektronik, Lambrecht, Germany). Oocytes were clamped to −90 mV and TASK-1 mediated currents were measured during 500 ms voltage pulses to 40 mV. Oocytes were continuously superfused with ND96 buffer containing: NaCl 96 mM, KCl2 mM, CaCl2 1.8 mM, MgCl2 1 mM, HEPES 5 mM (pH adjusted to 7.4 with NaOH). All experiments were performed at room temperature.
Test substances were consecutively added to the bath solution at rising concentrations. Compound effects were calculated as the percentage inhibition of
TASK-1 control current before compound application. IC50 values were obtained by fitting the data to the general dose-response equation.

Assay [1] has as its system left atrium of the anesthetized pig. The assay can be described thus: Refractory period and left-atrial vulnerability in the anesthetized pig. Format: in vivo. As to conditions: bolus 1 mg/kg, n = 2. The procedure:
Investigation of the refractory period and the left-atrial vulnerability in the pig:
The compounds were tested for prolongation of the refractory period and antiarrhythmic activity on the atrium of the anesthetized pig as described in the literature (Knobloch et al. 2002. Naunyn-Schmiedberg's Arch. Pharmacol. 366; 482-487). Here the anti-arrhythmic action relates to the inhibition of the occurrence of episodes of arrhythmias which are induced by a prematurely placed extra-stimulus (S2) in the left atrium (=left-atrial vulnerability). The refractory period values are stated in percent of the basal values 15 minutes after injection. Mean values for the refractory periods are shown from three rates (150, 200 and 250/min). The inhibitory values for the inhibition of episodes of arrhythmias refer to 3 measurements (3 timepoints) before administration vs. 3 measurements during the first hour after administration of the compounds.
The action of 3-[5-Acetyl-1-((1R,2R)-6-chloro-4-fluoro-2-hydroxy-indan-1-yl)-4,5,6,7-tetrahydro-1H-pyrazolo[4,3-c]pyridin-3-yl]-benzonitrile (11j) on the refractory period of the left atrium and antiarrhythmic activity in the anesthetized pig after a bolus administration of 1 mg/kg is shown in table 12. From the results shown in table 12, it is seen that it was possible to prevent 82% of the induced arrhythmias.

Chain of Human TASK-1 channels (O14649 whole entry): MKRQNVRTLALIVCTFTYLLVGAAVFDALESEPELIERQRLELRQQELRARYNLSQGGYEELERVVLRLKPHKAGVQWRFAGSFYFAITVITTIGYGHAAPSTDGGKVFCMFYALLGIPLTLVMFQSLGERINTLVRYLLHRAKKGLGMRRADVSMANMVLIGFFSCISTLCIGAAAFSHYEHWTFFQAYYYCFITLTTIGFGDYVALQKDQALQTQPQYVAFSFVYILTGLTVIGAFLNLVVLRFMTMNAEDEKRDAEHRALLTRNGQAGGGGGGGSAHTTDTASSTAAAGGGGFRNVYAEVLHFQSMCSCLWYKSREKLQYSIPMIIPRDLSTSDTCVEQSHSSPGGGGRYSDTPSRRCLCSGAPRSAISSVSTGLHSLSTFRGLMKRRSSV

The term IC50 denotes the point on the concentration scale where inhibition reaches its midpoint. Read a high IC50 as a need for much substance. Turning to `CC(=O)N1CCc2c(c(-c3ccc(F)cc3)nn2[C@@H]2c3cc(Cl)cc(F)c3C[C@H]2O)C1` [Example 11n, 1-[1-((1R,2R)-6-Chloro-4-fluoro-2-hydroxy-indan-1-yl)-3-(4-fluoro-phenyl)-1,4,6,7-tetrahydro-pyrazolo[4,3-c]pyridin-5-yl]-ethanone], at Human TASK-1 channels, the IC50 came out at 568 nM.

`CC(=O)N1CCc2c(c(-c3ccc(F)cc3)nn2[C@@H]2c3c(Cl)cc(Cl)cc3C[C@H]2O)C1` (racemic) [Example 11ac, racemic 1-[1-((1R,2R)-5,7-Dichloro-2-hydroxy-indan-1-yl)-3-(4-fluoro-phenyl)-1,4,6,7-tetrahydro-pyrazolo[4,3-c]pyridin-5-yl]-ethanone]: on Human TASK-1 channels, it took 3880 nM to reach half-maximal inhibition (IC50).

A word on the inhibition: it is how much of the control response was suppressed. Low readings indicate a weak effect, high ones a strong effect. Take `COCC(=O)N1CCc2c(c(-c3cccc(C#N)c3)nn2[C@@H]2c3cc(F)cc(F)c3C[C@H]2O)C1` [Example 14e, 3-[1-((1R,2R)-4,6-Difluoro-2-hydroxy-indan-1-yl)-5-(2-methoxy-acetyl)-4,5,6,7-tetrahydro-1H-pyrazolo[4,3-c]pyridin-3-yl]-benzonitrile]: testing at 5 µM at Human TASK-1 channels gave an inhibition of 72%.

As for `CC(=O)N1CCc2c(c(-c3cccc(C#N)c3)nn2[C@H]2c3cc(F)cc(F)c3C[C@@H]2O)C1` [Example 11o, 3-[5-Acetyl-1-((1S,2S)-4,6-difluoro-2-hydroxy-indan-1-yl)-4,5,6,7-tetrahydro-1H-pyrazolo[4,3-c]pyridin-3-yl]-benzonitrile], half-maximal inhibition against Human TASK-1 channels (IC50) was put at 675 nM.

`COCCN1CCc2c(c(-c3ccc(F)cc3)nn2[C@@H]2c3cc(F)cc(F)c3C[C@H]2O)C1` [Example 18g] returned an inhibition at 5 µM at Human TASK-1 channels of 56%.

On Human TASK-1 channels, `CC(=O)N1CCc2c(c(-c3cccc(C#N)c3)nn2[C@@H]2c3cc(Cl)cc(F)c3C[C@H]2O)C1` [Example 11j, 3-[5-Acetyl-1-((1R,2R)-6-chloro-4-fluoro-2-hydroxy-indan-1-yl)-4,5,6,7-tetrahydro-1H-pyrazolo[4,3-c]pyridin-3-yl]-benzonitrile] returned an IC50 of 439 nM. Besides, the “% inhibition of the arrhythmias” value in assay [1] (S2-induced left-atrial arrhythmias, first hour after administration) amounted to 82%. Also, in assay [1] (left atrium, 15 minutes after injection, mean of three rates (150, 200 and 250/min)), the “% increase in the refractory period” value worked out at 20%.
